Data: ChEMBL document CHEMBL4354838, “Synthesis and in Vitro and in Vivo Biological Evaluation of Tissue-Specific Bisthiazole Histone Deacetylase (HDAC) Inhibitors” (J Med Chem, 2020)
Blank lines part the entries; values can stand above or below the molecule they belong to.

Columns and labels:
[1] = molecular target: Histone deacetylase 1 (Homo sapiens, UniProt Q13547); assay: biochemical; assay type: cell-based
Description: Inhibition of recombinant His6/GST-tagged human HDAC1 expressed in baculovirus infected High5 insect cells using Ac-Lys-Tyr-Lys(epsilon-acetyl)-AMC as substrate after 24 hrs by fluorescence based assay

[2] = test system: HT-29; assay type: functional, Homo sapiens; conditions: at 50 mg/kg
Description: Antitumor activity against human HT-29 cells xenografted in nude mouse assessed as reduction in tumor growth at 50 mg/kg, po qd for 21 days relative to control

[3] = molecular target: NAD-dependent protein deacetylase sirtuin-3, mitochondrial (Homo sapiens, UniProt Q9NTG7)
Description: Inhibition of recombinant human N-terminal His-tagged SIRT3 expressed in Escherichia coli using Ac-Arg-His-Lys-Lys(Ac)-AMC as susbtrate after 2 hrs by fluorescence based assay

[4] = test system: MCF7; assay: cells; assay type: functional, cell-based; conditions: Homo sapiens, MCF7, 72 h
Description: Antiproliferative activity against human MCF7 cells assessed as reduction in cell growth after 72 hrs

[5] = molecular target: NAD-dependent protein deacetylase sirtuin-2 (Homo sapiens, UniProt Q8IXJ6)
Description: Inhibition of recombinant human N-terminal GST-tagged SIRT2 expressed in Escherichia coli using Ac-Arg-His-Lys-Lys(Ac)-AMC as susbtrate after 2 hrs by fluorescence based assay

[6] = molecular target: NAD-dependent protein deacetylase sirtuin-1 (Homo sapiens, UniProt Q96EB6)
Description: Inhibition of recombinant human N-terminal GST-tagged SIRT1 expressed in Escherichia coli using Ac-Arg-His-Lys-Lys(Ac)-AMC as susbtrate after 1 hr by fluorescence based assay

[7] = mouse, in vivo
[8] = cynomolgus monkey, hepatocytes, 3 h, 3 µM
[9] = dog, hepatocytes, 3 h, 3 µM
[10] = in vivo; conditions: female, ICR, mouse, other tissue
[11] = test system: NCI-H1975; assay: cells; assay type: functional, cell-based; conditions: Homo sapiens, NCI-H1975, 72 h
Description: Antiproliferative activity against human NCI-H1975 cells assessed as reduction in cell growth after 72 hrs

[12] = cynomolgus monkey, hepatocytes, 3 h, 3 µM; remark: listed apart in the source
[13] = mouse, in vivo, po, 50 mg/kg, 1 h
[14] = dog, hepatocytes, 3 h, 3 µM; remark: listed apart in the source
[15] = in vivo; conditions: ICR, mouse, iv, 2 mg/kg
[16] = mouse, in vivo; remark: listed apart in the source
[17] = mouse, in vivo, po, 50 mg/kg, 1 h; remark: listed apart in the source
[18] = human, hepatocytes, 3 h, 3 µM
[19] = test system: NCI-N87; assay: cells; assay type: functional, cell-based; conditions: Homo sapiens, NCI-N87, 72 h
Description: Antiproliferative activity against human NCI-N87 cells assessed as reduction in cell growth after 72 hrs

[20] = in vivo; conditions: ICR, mouse, po, 5 mg/kg
Description: Mean residence time in ICR mouse at 5 mg/kg, po after 1 hr to 24 hrs by LC-MS analysis

[21] = test system: HT-29; assay type: functional, Homo sapiens; conditions: at 100 mg/kg
Description: Antitumor activity against human HT-29 cells xenografted in nude mouse assessed as reduction in tumor growth at 100 mg/kg, po qd for 21 days relative to control

[22] = molecular target: Histone deacetylase 4 (Homo sapiens, UniProt P56524); assay: biochemical; assay type: cell-based
Description: Inhibition of recombinant human His6/GST-tagged HDAC4 expressed in baculovirus infected High5 insect cells using Ac-Leu-Gly-Lys(Tfa)-AMC as substrate after 24 hrs by fluorescence based assay

[23] = molecular target: Histone deacetylase 5 (Homo sapiens, UniProt Q9UQL6); assay: biochemical; assay type: cell-based, Sf9
Description: Inhibition of recombinant N-terminal GST-tagged full length human HDAC5 expressed in baculovirus infected Sf9 cells using Ac-Leu-Gly-Lys(Tfa)-AMC as substrate after 24 hrs by fluorescence based assay

[24] = in vivo; conditions: male, ICR, mouse, other tissue
[25] = in vivo; conditions: ICR, mouse, po, 5 mg/kg; remark: listed apart in the source
[26] = mouse, in vivo; remark: listed apart in the source
[27] = mouse, in vivo, iv, 10 mg/kg
[28] = human, hepatocytes, 3 h, 3 µM; remark: listed apart in the source
[29] = dog, hepatocytes, 3 h, 3 µM; remark: listed apart in the source
[30] = mouse, in vivo, po, 50 mg/kg, 1 h; remark: listed apart in the source
[31] = test system: Bel-7402; assay: cells; assay type: functional, cell-based; conditions: Homo sapiens, Bel-7402, 72 h
Description: Antiproliferative activity against human Bel7402 cells assessed as reduction in cell growth after 72 hrs

[32] = cynomolgus monkey, hepatocytes, 3 h, 3 µM; remark: listed apart in the source
[33] = mouse, in vivo; remark: listed apart in the source
[34] = mouse, in vivo, iv, 10 mg/kg; remark: listed apart in the source
[35] = in vivo; conditions: ICR, mouse, po, 5 mg/kg; remark: listed apart in the source
Description: Half life in ICR mouse at 5 mg/kg, po measured up to 24 hrs by LC-MS analysis

[36] = test system: HT-29; assay type: functional, Homo sapiens; conditions: at 25 mg/kg
Description: Antitumor activity against human HT-29 cells xenografted in nude mouse assessed as reduction in tumor growth at 25 mg/kg, po qd for 21 days relative to control

[37] = in vivo; conditions: ICR, mouse, iv, 2 mg/kg; remark: listed apart in the source
[38] = dog, hepatocytes, 3 h, 3 µM; remark: listed apart in the source
[39] = mouse, in vivo; remark: listed apart in the source
[40] = mouse, in vivo, po, 50 mg/kg, 1 h; remark: listed apart in the source
[41] = cynomolgus monkey, hepatocytes, 3 h, 3 µM; remark: listed apart in the source
[42] = cynomolgus monkey, hepatocytes, 3 h, 3 µM; remark: listed apart in the source
[43] = mouse, hepatocytes, 3 h, 3 µM
[44] = mouse, in vivo, po, 50 mg/kg, 1 h; remark: listed apart in the source
[45] = dog, hepatocytes, 3 h, 3 µM; remark: listed apart in the source
[46] = in vivo; conditions: ICR, mouse, iv, 2 mg/kg; remark: listed apart in the source
[47] = mouse, hepatocytes, 3 h, 3 µM; remark: listed apart in the source
[48] = molecular target: Histone deacetylase 11 (Homo sapiens, UniProt Q96DB2); assay: biochemical; assay type: cell-based
Description: Inhibition of recombinant human His6/GST-tagged HDAC11 expressed in baculovirus infected High5 insect cells using Ac-Lys-Tyr-Lys(epsilon-acetyl)-AMC as susbtrate after 24 hrs by fluorescence based assay

[49] = in vivo; conditions: ICR, mouse, other tissue
[50] = molecular target: Histone deacetylase 9 (Homo sapiens, UniProt Q9UKV0); assay: biochemical; assay type: cell-based, Sf9
[51] = in vivo; conditions: female, ICR, mouse, other tissue; remark: listed apart in the source
[52] = molecular target: Polyamine deacetylase HDAC10 (Homo sapiens, UniProt Q969S8); assay: biochemical; assay type: cell-based
Description: Inhibition of recombinant human His6/GST-tagged HDAC10 expressed in baculovirus infected High5 insect cells using Ac-Lys-Tyr-Lys(epsilon-acetyl)-AMC as susbtrate after 24 hrs by fluorescence based assay

[53] = human, hepatocytes, 3 h, 3 µM; remark: listed apart in the source
[54] = mouse, in vivo, po, 50 mg/kg, 1 h; remark: listed apart in the source
[55] = mouse, in vivo; remark: listed apart in the source
[56] = rat, hepatocytes, 3 h, 3 µM
[57] = human, hepatocytes, 3 h, 3 µM; remark: listed apart in the source
[58] = mouse, hepatocytes, 3 h, 3 µM; remark: listed apart in the source
[59] = mouse, in vivo, po, 50 mg/kg, 1 h; remark: listed apart in the source
[60] = mouse, in vivo; remark: listed apart in the source
[61] = rat, hepatocytes, 3 h, 3 µM; remark: listed apart in the source
[62] = in vivo; conditions: ICR, mouse, other tissue; remark: listed apart in the source
[63] = cynomolgus monkey, hepatocytes, 3 h, 3 µM; remark: listed apart in the source
[64] = in vivo; conditions: ICR, mouse, po, 5 mg/kg; remark: listed apart in the source
[65] = test system: MDA-MB-231; assay: cells; assay type: functional, cell-based; conditions: Homo sapiens, MDA-MB-231, 72 h
Description: Antiproliferative activity against human MDA-MB-231 cells assessed as reduction in cell growth after 72 hrs

[66] = rat, hepatocytes, 3 h, 3 µM; remark: listed apart in the source
[67] = rat, hepatocytes, 3 h, 3 µM; remark: listed apart in the source
[68] = mouse, in vivo; remark: listed apart in the source
[69] = test system: T47D; assay: cells; assay type: functional, cell-based; conditions: Homo sapiens, 72 h
Description: Antiproliferative activity against human T47D cells assessed as reduction in cell growth after 72 hrs

[70] = in vivo; conditions: ICR, mouse, other tissue; remark: listed apart in the source
[71] = test system: EBC-1; assay: cells; assay type: functional, cell-based; conditions: Homo sapiens, EBC-1, 72 h
Description: Antiproliferative activity against human EBC1 cells assessed as reduction in cell growth after 72 hrs

[72] = mouse, in vivo; remark: listed apart in the source
[73] = mouse, in vivo, po, 50 mg/kg, 1 h; remark: listed apart in the source
[74] = rat, hepatocytes, 3 h, 3 µM; remark: listed apart in the source
[75] = human, hepatocytes, 3 h, 3 µM; remark: listed apart in the source
[76] = in vivo; conditions: ICR, mouse, other tissue; remark: listed apart in the source
[77] = mouse, hepatocytes, 3 h, 3 µM; remark: listed apart in the source
[78] = test system: HT-29; assay: cells; assay type: functional, cell-based; conditions: Homo sapiens, HT-29, 72 h
Description: Antiproliferative activity against human HT-29 cells assessed as reduction in cell growth after 72 hrs

[79] = molecular target: Histone deacetylase 2 (Homo sapiens, UniProt Q92769); assay: biochemical; assay type: cell-based
Description: Inhibition of recombinant human His6/GST-tagged HDAC2 expressed in baculovirus infected High5 insect cells using Ac-Lys-Tyr-Lys(epsilon-acetyl)-AMC as susbtrate after 24 hrs by fluorescence based assay

[80] = mouse, in vivo, po, 50 mg/kg, 6 h
[81] = mouse, hepatocytes, 3 h, 3 µM; remark: listed apart in the source
[82] = mouse, in vivo, po, 50 mg/kg, 1 h; remark: listed apart in the source
[83] = mouse, in vivo, po, 50 mg/kg, 1 h; remark: listed apart in the source
[84] = human, hepatocytes, 3 h, 3 µM; remark: listed apart in the source
[85] = mouse, in vivo, po, 50 mg/kg, 1 h; remark: listed apart in the source
[86] = in vivo; conditions: ICR, mouse, brain
[87] = in vivo; conditions: ICR, mouse, other tissue; remark: listed apart in the source
[88] = in vivo; conditions: ICR, mouse, po, 5 mg/kg; remark: listed apart in the source
[89] = in vivo; conditions: ICR, mouse, po, 5 mg/kg; remark: listed apart in the source
[90] = in vivo; conditions: ICR, mouse, iv, 2 mg/kg; remark: listed apart in the source
[91] = molecular target: Histone deacetylase 7 (Homo sapiens, UniProt Q8WUI4); assay: biochemical; assay type: cell-based, Sf9
[92] = in vivo; conditions: ICR, mouse, other tissue; remark: listed apart in the source
[93] = mouse, in vivo; remark: listed apart in the source
[94] = in vivo; conditions: ICR, mouse, po, 5 mg/kg; remark: listed apart in the source
[95] = dog, hepatocytes, 3 h, 3 µM; remark: listed apart in the source
[96] = molecular target: Histone deacetylase 8 (Homo sapiens, UniProt Q9BY41); assay: biochemical; assay type: cell-based
Description: Inhibition of recombinant human His6/GST-tagged HDAC8 expressed in baculovirus infected High5 insect cells using Ac-Lys-Tyr-Lys(epsilon-acetyl)-AMC as susbtrate after 24 hrs by fluorescence based assay

[97] = mouse, in vivo; remark: listed apart in the source
[98] = mouse, hepatocytes, 3 h, 3 µM; remark: listed apart in the source
[99] = rat, hepatocytes, 3 h, 3 µM; remark: listed apart in the source

Histone deacetylase 1, sequence (Q13547 whole entry): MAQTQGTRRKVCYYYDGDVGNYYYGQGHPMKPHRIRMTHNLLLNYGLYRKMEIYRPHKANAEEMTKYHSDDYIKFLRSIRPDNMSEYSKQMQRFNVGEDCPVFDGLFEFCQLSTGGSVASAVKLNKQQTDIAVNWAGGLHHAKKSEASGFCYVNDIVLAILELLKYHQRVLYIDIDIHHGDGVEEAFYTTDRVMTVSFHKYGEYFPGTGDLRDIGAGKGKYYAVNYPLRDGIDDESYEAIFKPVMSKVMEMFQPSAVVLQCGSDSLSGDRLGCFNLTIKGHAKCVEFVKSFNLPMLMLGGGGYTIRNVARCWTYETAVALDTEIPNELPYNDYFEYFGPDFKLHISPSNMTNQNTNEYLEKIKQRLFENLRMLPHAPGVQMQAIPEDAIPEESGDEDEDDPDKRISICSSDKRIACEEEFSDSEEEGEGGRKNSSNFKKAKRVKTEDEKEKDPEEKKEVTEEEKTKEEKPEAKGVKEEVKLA
NAD-dependent protein deacetylase sirtuin-3, mitochondrial, sequence (Q9NTG7 whole entry): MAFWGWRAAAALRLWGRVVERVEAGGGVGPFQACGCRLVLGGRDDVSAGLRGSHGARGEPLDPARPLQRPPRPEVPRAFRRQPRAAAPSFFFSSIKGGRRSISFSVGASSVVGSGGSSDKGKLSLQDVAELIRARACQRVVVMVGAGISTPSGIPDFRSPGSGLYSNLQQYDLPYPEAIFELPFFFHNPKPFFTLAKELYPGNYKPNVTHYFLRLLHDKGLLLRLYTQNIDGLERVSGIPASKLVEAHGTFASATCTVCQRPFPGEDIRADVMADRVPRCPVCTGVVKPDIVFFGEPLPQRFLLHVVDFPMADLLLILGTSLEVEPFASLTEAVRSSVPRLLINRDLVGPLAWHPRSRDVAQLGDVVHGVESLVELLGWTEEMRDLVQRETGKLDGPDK
NAD-dependent protein deacetylase sirtuin-2, sequence (Q8IXJ6 whole entry): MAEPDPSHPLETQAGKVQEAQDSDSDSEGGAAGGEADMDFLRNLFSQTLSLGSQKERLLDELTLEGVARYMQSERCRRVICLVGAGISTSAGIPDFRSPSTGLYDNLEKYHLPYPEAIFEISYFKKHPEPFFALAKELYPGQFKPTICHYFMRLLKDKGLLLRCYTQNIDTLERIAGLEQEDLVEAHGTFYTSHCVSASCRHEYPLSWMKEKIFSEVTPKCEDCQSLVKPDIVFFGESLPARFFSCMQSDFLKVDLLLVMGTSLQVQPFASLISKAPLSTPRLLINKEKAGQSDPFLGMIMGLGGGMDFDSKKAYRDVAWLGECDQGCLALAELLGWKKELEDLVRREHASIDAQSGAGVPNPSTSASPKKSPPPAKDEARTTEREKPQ
NAD-dependent protein deacetylase sirtuin-1, sequence (Q96EB6 whole entry): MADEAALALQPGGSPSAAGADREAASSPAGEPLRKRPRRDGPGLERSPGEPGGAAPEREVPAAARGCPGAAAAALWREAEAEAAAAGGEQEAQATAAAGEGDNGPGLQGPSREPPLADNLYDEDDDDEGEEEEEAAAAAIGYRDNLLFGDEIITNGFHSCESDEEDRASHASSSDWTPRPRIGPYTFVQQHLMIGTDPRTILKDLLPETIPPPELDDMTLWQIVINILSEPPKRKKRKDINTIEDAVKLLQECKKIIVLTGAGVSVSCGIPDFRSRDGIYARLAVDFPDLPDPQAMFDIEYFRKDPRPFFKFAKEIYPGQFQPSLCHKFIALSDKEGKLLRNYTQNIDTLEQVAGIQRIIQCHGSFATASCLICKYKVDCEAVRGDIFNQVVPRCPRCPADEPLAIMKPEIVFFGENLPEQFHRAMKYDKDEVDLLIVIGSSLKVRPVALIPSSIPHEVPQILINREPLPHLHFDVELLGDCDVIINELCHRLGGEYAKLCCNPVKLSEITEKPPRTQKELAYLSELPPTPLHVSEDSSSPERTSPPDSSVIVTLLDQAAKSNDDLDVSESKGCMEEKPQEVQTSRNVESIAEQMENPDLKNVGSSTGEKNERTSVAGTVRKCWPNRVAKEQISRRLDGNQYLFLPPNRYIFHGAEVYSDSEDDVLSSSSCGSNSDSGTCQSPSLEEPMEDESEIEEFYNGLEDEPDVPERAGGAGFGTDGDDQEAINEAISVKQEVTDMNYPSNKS
Histone deacetylase 4, sequence (P56524 whole entry): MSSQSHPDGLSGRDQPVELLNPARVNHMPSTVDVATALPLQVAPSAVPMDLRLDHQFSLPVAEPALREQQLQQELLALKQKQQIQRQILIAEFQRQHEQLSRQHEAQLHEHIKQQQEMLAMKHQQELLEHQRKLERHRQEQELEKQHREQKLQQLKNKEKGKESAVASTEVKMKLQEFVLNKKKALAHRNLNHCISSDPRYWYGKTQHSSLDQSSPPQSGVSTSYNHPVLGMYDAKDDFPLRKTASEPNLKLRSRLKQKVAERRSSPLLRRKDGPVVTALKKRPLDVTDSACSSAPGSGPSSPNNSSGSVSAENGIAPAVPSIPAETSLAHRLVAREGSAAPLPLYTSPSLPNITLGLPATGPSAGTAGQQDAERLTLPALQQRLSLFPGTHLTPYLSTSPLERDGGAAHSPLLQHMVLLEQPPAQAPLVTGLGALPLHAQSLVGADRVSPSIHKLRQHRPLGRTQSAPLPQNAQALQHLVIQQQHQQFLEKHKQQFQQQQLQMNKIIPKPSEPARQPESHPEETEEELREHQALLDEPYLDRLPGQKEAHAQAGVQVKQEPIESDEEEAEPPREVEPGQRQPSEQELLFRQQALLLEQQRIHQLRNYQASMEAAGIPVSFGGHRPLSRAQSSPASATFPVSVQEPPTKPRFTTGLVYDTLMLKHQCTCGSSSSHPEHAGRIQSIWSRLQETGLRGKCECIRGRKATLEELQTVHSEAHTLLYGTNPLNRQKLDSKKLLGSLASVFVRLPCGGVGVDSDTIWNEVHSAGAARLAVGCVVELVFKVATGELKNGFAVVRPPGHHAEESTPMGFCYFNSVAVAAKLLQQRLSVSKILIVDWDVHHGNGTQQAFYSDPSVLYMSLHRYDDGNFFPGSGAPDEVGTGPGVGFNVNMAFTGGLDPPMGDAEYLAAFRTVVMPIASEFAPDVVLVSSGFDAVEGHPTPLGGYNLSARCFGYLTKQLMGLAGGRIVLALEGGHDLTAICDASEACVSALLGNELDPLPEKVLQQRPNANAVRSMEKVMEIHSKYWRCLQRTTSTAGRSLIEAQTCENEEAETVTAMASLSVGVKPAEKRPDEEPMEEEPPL
Histone deacetylase 7, sequence (Q8WUI4 whole entry): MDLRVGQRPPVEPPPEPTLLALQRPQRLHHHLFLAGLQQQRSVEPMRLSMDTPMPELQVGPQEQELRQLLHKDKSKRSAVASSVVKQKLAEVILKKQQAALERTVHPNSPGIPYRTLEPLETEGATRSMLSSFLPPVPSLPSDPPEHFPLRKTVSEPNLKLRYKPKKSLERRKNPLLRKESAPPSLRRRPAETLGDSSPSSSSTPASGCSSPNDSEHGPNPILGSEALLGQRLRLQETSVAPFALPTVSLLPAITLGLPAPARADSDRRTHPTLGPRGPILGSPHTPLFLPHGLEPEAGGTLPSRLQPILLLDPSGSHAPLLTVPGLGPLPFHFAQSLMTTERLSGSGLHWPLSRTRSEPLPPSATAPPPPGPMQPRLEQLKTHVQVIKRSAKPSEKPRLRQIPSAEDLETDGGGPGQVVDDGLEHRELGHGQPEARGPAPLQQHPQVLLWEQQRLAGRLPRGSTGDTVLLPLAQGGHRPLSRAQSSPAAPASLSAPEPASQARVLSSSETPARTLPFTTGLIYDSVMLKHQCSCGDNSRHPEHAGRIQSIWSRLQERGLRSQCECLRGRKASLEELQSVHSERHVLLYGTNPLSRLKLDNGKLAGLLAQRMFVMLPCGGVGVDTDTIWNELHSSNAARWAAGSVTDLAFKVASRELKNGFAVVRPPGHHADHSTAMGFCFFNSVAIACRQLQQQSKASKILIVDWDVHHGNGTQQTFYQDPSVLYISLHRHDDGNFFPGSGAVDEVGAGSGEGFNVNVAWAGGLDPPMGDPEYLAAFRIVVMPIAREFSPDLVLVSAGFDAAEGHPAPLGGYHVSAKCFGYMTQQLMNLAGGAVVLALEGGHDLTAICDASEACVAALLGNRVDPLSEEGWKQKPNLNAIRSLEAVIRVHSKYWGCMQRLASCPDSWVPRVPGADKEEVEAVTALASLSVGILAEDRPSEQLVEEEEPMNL
Histone deacetylase 9, sequence (Q9UKV0 whole entry): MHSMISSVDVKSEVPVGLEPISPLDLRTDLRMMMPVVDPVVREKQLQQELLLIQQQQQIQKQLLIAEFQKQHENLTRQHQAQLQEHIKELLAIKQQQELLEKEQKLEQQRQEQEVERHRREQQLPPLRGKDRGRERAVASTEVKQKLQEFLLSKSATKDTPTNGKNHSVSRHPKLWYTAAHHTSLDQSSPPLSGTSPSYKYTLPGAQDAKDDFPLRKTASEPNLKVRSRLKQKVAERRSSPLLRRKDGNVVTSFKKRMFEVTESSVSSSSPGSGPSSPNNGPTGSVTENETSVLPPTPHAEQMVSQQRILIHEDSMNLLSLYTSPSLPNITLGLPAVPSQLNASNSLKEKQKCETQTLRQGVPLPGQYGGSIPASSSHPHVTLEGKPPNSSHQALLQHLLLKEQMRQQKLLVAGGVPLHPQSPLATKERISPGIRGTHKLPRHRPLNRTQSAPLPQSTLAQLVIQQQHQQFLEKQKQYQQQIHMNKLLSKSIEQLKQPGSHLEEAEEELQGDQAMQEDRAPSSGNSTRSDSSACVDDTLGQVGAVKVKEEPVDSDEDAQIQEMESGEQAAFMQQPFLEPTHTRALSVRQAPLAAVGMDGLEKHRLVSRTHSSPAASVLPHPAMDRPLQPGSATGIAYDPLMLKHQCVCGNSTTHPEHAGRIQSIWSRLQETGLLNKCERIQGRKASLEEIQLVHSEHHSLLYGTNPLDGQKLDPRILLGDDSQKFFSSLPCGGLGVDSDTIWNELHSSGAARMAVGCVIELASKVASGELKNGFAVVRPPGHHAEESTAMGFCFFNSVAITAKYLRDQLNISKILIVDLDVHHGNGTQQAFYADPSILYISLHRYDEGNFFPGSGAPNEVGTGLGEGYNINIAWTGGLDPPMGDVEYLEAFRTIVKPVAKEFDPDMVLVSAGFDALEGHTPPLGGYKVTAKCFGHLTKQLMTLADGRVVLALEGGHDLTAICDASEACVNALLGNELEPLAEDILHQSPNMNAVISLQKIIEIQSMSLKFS

SMILES: Cc1[nH]c2ccccc2c1CCNCc1ccc(/C=C/C(=O)NO)cc1 [PANOBINOSTAT]
- T/C [2]: 93.85%
- IC50 [3]: > 20000 nM
- IC50 [4]: 9 nM
- IC50 [5]: > 20000 nM
- IC50 [6]: > 20000 nM

SMILES: CC(C)(NC(=O)c1nc(-c2nccs2)sc1C1CC1)c1ccc(C(=O)NO)cc1
- IC50 [1]: 163 nM

The next lines start with results.

- IC50 [1]: 22.3 nM
SMILES: O=C(NO)c1ccc(C2(NC(=O)c3nc(-c4nccs4)sc3C3CC3)CC2)cc1

- IC50 [1]: 660 nM
SMILES: CC(C)Cc1sc(-c2nccs2)nc1C(=O)Nc1ccc(/C=C/C(=O)NO)cc1

- AUC [7]: 4692 ng·h/g
- Drug metabolism [8]: Metabolite_Detected
- Drug metabolism [9]: Metabolite_Detected
- Kp [10]: 3.28
- IC50 [11]: 66.4 nM
- Drug metabolism [12]: Metabolite_Notdetected
- Drug uptake [13]: Active
- Drug metabolism [14]: Metabolite_Detected
- half-life [15]: 8.67 h
- AUC [16]: 6079 ng·h/g
- Drug uptake [17]: Active
- Drug metabolism [18]: Metabolite_Notdetected
- IC50 [19]: 28.3 nM
- MRT [20]: 5.22 h
- IC50 [22]: > 20000 nM
- IC50 [23]: 16700 nM
- Kp [24]: 2.46
- AUC(0-inf) [25]: 944 ng·h/mL
- AUC [26]: 105642 ng·h/g
- Drug uptake [27]: Active
- Drug metabolism [28]: Metabolite_Detected
- Drug metabolism [29]: Metabolite_Detected
- Drug uptake [30]: Active
- IC50 [31]: 80.8 nM
- Drug metabolism [32]: Metabolite_Notdetected
- AUC [33]: 8795 ng·h/g
- Drug uptake [34]: Active
- half-life at 24 h [35]: 4.23 h
- AUC(0-t) [37]: 1080 ng·h/mL
- Drug metabolism [38]: Metabolite_Notdetected
- AUC [39]: 1472 ng·h/g
- IC50 [3]: > 20000 nM
- Drug uptake [40]: Active
- Drug metabolism [41]: Metabolite_Detected
- Drug metabolism [42]: Metabolite_Detected
- Drug metabolism [43]: Metabolite_Notdetected
- IC50 [4]: 58.5 nM
- Drug uptake [44]: Active
- Drug metabolism [45]: Metabolite_Detected
- AUC(0-inf) [46]: 1250 ng·h/mL
- Drug metabolism [47]: Metabolite_Detected
- IC50 [48]: 77.8 nM
- Kp [49]: 176
- IC50 [50]: > 20000 nM
- Kp [51]: 4.38
- IC50 [52]: 1.98 nM
- IC50 [5]: > 20000 nM
- Drug metabolism [53]: Metabolite_Detected
- Drug uptake [54]: Active
- AUC [55]: 3438 ng·h/g
- Drug metabolism [56]: Metabolite_Detected
- Drug metabolism [57]: Metabolite_Detected
- Drug metabolism [58]: Metabolite_Detected
- Drug uptake [59]: Active
- AUC [60]: 698 ng·h/g
- IC50 [6]: > 20000 nM
- Drug metabolism [61]: Metabolite_Detected
- Kp [62]: 8.66
- Drug metabolism [63]: Metabolite_Detected
- Tmax at 24 h [64]: 0.67 h
- IC50 [65]: 76.6 nM
- Drug metabolism [66]: Metabolite_Notdetected
- Drug metabolism [67]: Metabolite_Detected
- AUC [68]: 1964 ng·h/g
- IC50 [69]: 40.8 nM
- Kp [70]: 10.2
- IC50 [71]: 110 nM
- AUC [72]: 5185 ng·h/g
- Drug uptake [73]: Active
- Drug metabolism [74]: Metabolite_Detected
- Drug metabolism [75]: Metabolite_Detected
- Kp [76]: 5.74
- Drug metabolism [77]: Metabolite_Detected
- IC50 [78]: 166 nM
- IC50 [79]: 13.3 nM
- Drug uptake [80]: Active
- Drug metabolism [81]: Metabolite_Notdetected
- Drug uptake [82]: Active
- Drug uptake [83]: Active
- Drug metabolism [84]: Metabolite_Notdetected
- Drug uptake [85]: Active
- Kp [86]: 1.17
- Kp [87]: 7.84
- AUC(0-t) [88]: 924 ng·h/mL
- bioavailability [89]: 34 to 34.4%
- MRT [90]: 10.4 h
- IC50 [91]: > 20000 nM
- Kp [92]: 14.7
- AUC [93]: 599 ng·h/g
- Cmax [94]: 138 ng/mL
- Drug metabolism [95]: Metabolite_Notdetected
- IC50 [96]: 16.8 nM
- AUC [97]: 2622 ng·h/g
- Drug metabolism [98]: Metabolite_Detected
- Drug metabolism [99]: Metabolite_Notdetected
SMILES: C[C@H](NC(=O)c1nc(-c2ncc(-c3ccccc3)s2)sc1C1CC1)c1ccc(C(=O)NO)cc1
- T/C [2]: 59.72%
- T/C [21]: 37.56%
- T/C [36]: 60.58%
